Experimental data published in paper PMC9578043 (Journal of medicinal chemistry, 2021).

Key:
[1] = Liver microsomal stability, human; type: in vitro ADME
[2] = Liver microsomal stability, rat; type: in vitro ADME
[3] = Liver microsomal stability, mouse; type: in vitro ADME
[4] = Liver microsomal stability, monkey; type: in vitro ADME, cynomolgus monkey; conditions: for half-life: cynomolgus monkey
[5] = Kinetic solubility in PBS; type: physicochemical; conditions: pH 7.4
CYP2C9 = CYP2C9 (Homo sapiens, UniProt P11712); assay: CYP inhibition 2C9; type: in vitro ADME
CYP2C19 = CYP2C19 (Homo sapiens, UniProt P33261); assay: CYP inhibition 2C19; type: in vitro ADME
CYP2D6 = CYP2D6 (Homo sapiens, UniProt P10635); assay: CYP inhibition 2D6; type: in vitro ADME
CYP3A4 = CYP3A4 (Homo sapiens, UniProt P08684); assay: CYP inhibition 3A4; type: in vitro ADME
[6] = Plasma protein binding, human; type: in vitro ADME
[7] = Plasma protein binding, rat; type: in vitro ADME
ATTR-CM [8] = conditions: 28 day phase II, cited from earlier work
serum RBP4 levels = tested on: serum RBP4 levels; parameters: species or system mice; conditions: mouse, in vivo, po
ATTR-CM [9] = conditions: 441 ATTR-CM patients, compared to placebo; cited from earlier work
hereditary ATTR = conditions: patients with hereditary ATTR; cited from earlier work
TTR = conditions: ITC; cited from earlier work

CYP2C9, sequence (P11712 whole entry): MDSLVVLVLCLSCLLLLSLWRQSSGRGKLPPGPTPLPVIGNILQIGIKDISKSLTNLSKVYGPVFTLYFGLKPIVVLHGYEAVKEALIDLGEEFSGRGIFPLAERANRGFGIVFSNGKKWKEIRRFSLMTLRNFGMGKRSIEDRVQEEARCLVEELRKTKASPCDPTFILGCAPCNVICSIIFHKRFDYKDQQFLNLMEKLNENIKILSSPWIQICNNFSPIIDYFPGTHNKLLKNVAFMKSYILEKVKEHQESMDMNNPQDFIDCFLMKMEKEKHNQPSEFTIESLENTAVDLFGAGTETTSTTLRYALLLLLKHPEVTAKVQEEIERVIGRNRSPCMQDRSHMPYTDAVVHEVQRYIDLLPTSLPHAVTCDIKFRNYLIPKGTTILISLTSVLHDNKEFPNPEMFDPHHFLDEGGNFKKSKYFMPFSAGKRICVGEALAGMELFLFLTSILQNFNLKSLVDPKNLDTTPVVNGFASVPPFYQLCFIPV
CYP3A4, sequence (P08684 whole entry): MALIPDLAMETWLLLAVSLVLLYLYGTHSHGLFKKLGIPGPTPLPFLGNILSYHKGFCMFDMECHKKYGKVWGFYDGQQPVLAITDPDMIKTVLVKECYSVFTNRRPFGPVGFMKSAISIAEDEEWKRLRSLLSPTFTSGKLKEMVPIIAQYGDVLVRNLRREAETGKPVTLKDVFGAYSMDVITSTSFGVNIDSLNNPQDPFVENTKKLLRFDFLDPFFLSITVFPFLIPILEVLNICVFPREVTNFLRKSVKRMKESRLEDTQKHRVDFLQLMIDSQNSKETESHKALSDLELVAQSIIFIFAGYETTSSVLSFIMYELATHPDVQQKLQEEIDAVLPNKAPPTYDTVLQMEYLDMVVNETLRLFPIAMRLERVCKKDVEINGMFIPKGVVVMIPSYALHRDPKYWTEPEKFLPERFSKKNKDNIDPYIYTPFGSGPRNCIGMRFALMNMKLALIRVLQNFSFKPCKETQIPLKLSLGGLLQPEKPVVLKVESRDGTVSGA
CYP2D6, sequence (P10635 whole entry): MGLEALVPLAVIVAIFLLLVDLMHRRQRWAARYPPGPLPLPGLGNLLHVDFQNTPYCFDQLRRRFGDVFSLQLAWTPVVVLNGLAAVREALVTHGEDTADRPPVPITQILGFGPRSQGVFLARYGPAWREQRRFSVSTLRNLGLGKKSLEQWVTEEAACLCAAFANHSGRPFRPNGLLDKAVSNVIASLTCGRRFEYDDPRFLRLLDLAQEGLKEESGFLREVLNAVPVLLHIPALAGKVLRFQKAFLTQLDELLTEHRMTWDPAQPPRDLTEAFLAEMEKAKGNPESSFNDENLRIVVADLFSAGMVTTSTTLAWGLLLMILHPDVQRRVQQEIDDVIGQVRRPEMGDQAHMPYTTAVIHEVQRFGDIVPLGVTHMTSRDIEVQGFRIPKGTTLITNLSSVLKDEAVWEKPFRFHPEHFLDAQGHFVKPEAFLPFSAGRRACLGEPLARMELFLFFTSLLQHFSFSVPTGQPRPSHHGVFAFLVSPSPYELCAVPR
CYP2C19, sequence (P33261 whole entry): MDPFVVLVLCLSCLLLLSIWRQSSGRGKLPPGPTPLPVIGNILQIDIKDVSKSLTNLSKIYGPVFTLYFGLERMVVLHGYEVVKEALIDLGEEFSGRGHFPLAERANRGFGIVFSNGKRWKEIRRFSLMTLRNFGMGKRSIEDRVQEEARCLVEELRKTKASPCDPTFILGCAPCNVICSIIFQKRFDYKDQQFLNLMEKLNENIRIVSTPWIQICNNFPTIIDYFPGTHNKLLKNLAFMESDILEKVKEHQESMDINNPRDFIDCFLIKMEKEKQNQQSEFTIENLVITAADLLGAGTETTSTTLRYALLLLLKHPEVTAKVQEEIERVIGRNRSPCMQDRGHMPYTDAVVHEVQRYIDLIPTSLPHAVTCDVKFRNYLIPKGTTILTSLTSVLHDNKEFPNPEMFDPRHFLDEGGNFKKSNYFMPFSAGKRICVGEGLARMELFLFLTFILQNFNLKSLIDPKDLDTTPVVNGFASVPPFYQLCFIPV

## Cc1ccc(C(=O)O)cc1N1CCN(c2c(C)n[nH]c2C)CC1 [20c, 3-(4-(3,5-dimethyl-1H-pyrazol-4-yl)piperazin-1-yl)-4-methylbenzoic acid]
[1]; microsomes
  half-life: > 1 h
[2]; microsomes
  half-life: > 1 h
[3]; microsomes
  half-life: > 1 h
[4]; microsomes
  half-life: > 1 h

## Cc1n[nH]c(C)c1N1CCN(c2cc(C(=O)O)ccc2C(F)(F)F)CC1 [20d, 3-(4-(3,5-dimethyl-1H-pyrazol-4-yl)piperazin-1-yl)-4-(trifluoromethyl)benzoic acid]
[1]; microsomes
  half-life: > 1 h
[2]; microsomes
  half-life: > 1 h
[3]; microsomes
  half-life: > 1 h
[4]; microsomes
  half-life: > 1 h

## COc1ccc(C(=O)O)cc1N1CCN(c2c(C)n[nH]c2C)CC1 [20b, 3-(4-(3,5-dimethyl-1H-pyrazol-4-yl)piperazin-1-yl)-4-methoxybenzoic acid]
[5]
  solubility: ≥ 200 µM
[1]; liver microsomes
  half-life: > 1 h
  microsomal CLint: < 23.1 µL/min/mg
  remaining at 0.5 h: 108%
[2]; liver microsomes
  half-life: > 1 h
  microsomal CLint: < 23.1 µL/min/mg
  remaining at 0.5 h: 101%
[3]; liver microsomes
  half-life: > 1 h
  microsomal CLint: < 23.1 µL/min/mg
  remaining at 0.5 h: 102%
[4]; liver microsomes
  half-life: > 1 h
[4]; monkey, liver microsomes
  microsomal CLint: < 23.1 µL/min/mg
  remaining at 0.5 h: 102%
CYP2C9
  inhibition at 10 µM: 1.4%
CYP2C19
  inhibition at 10 µM: 4.2%
CYP2D6
  inhibition at 10 µM: 8%
CYP3A4
  inhibition at 10 µM: 19.6%
[6]
  fraction unbound: 0.25
[7]
  fraction unbound: 0.22

## Cc1n[nH]c(C)c1CCCOc1cc(C(=O)O)ccc1F [AG10, acoramidis]
ATTR-CM [8]; ATTR-CM patients with symptomatic chronic heart failure
  stabilization of TTR: near-complete stabilization
ATTR-CM [8]
  tolerability: well tolerated

## Cc1cc(F)c(N2CCN(c3c(C)n[nH]c3C)CC2)cc1C(=O)O [20i, 5-(4-(3,5-dimethyl-1H-pyrazol-4-yl)piperazin-1-yl)-4-fluoro-2-methylbenzoic acid]
[1]; liver microsomes
  half-life: > 1 h
[2]; liver microsomes
  half-life: > 1 h
[3]; liver microsomes
  half-life: > 1 h
[4]; liver microsomes
  half-life: > 1 h

## Cc1n[nH]c(C)c1N1CCN(c2cc(C(=O)O)ccc2F)CC1 [compound 14, 3-(4-(3,5-dimethyl-1H-pyrazol-4-yl)piperazin-1-yl)-4-fluorobenzoic acid]
[1]; microsomes
  half-life: > 1 h
[2]; microsomes
  half-life: > 1 h
[3]; microsomes
  half-life: > 1 h
[4]; microsomes
  half-life: > 1 h
Serum RBP4 levels
  changes in serum TTR levels: No changes

## Cc1n[nH]c(C)c1N1CCN(c2cc(C(=O)O)ccc2Cl)CC1 [20e, 4-chloro-3-(4-(3,5-dimethyl-1H-pyrazol-4-yl)piperazin-1-yl)benzoic acid]
[1]; liver microsomes
  half-life: > 1 h
[2]; liver microsomes
  half-life: > 1 h
[3]; liver microsomes
  half-life: > 1 h
[4]; liver microsomes
  half-life: > 1 h

## O=C(O)c1ccc2nc(-c3cc(Cl)cc(Cl)c3)oc2c1 [tafamidis]
ATTR-CM [9]
  reduction of the rate of cardiovascular-related hospitalizations: 32%
  reduction of the risk of death: 30%
Hereditary ATTR
  patients who do not respond: Approximately 30%
TTR
  ΔH: -5.00 kcal/mol

## Cc1n[nH]c(C)c1N1CCN(c2cc(-c3nn[nH]n3)ccc2F)CC1 [compound 54, 1-(3,5-dimethyl-1H-pyrazol-4-yl)-4-(2-fluoro-5-(2H-tetrazol-5-yl)phenyl)piperazine]
[1]; microsomes
  half-life: 1.26 h
  microsomal CLint: 18.4 µL/min/mg
[2]; microsomes
  half-life: < 1 h
[3]; microsomes
  half-life: < 1 h
[4]; microsomes
  half-life: < 1 h
